Patent US6624119B1, “3-[Benz(ox/thi)azol-7-yl]-1h-pyrimidine-2,4-diones” (BASF Aktiengesellschaft, priority 1998, dated 2003)

What was measured:
Assay in all cases: greenhouse herbicidal test, post-emergence
Format in all cases: in vivo
[1] = test system: Abutilon theophrasti; conditions: Abutilon theophrasti (velvet leaf), application rates 15.6 or 7.8 kg/ha a.s., 2 to 4 weeks
Text: (§1) The growing containers used were plastic pots containing loamy sand with approximately 3.0% of humus as the substrate. The seeds of the test plants were sown separately for each species.
(§2) For the post-emergence treatment, the test plants were first grown to a plant height of 3 to 15 cm, depending on the growth habit, and only then treated with the active ingredients which had been suspended or emulsified in water. The test plants were either sown directly and grown in the same containers or first grown separately as seedlings and transplanted into the test containers a few days prior to treatment. The rate of application for the post-emergence treatment was only 15.6 or […] of a.s. (active substance).
(§3) Depending on the species, the plants were kept at 10-25° C. or 20-35° C. The test period extended over 2 to 4 weeks. During this time, the plants were tended, and their response to the individual treatments was evaluated.
(§4) Evaluation was carried out using a scale from 0 to 100. 100 means no emergence of the plants or complete destruction of at least the aerial parts, and 0 means no damage or normal course of growth.
(§5) The plants used in the greenhouse experiments belonged to the following species: […]

[2] = test system: Amaranthus retroflexus; conditions: Amaranthus retroflexus (redroot pigweed), application rates 15.6 or 7.8 kg/ha a.s., 2 to 4 weeks
Text: as §1, §2, §3, §4, §5

[3] = test system: Chenopodium album; conditions: Chenopodium album (lambsquarters), application rates 15.6 or 7.8 kg/ha a.s., 2 to 4 weeks
Text: as §1, §2, §3, §4, §5

[4] = test system: Solanum nigrum; conditions: Solanum nigrum (black nightshade), application rates 15.6 or 7.8 kg/ha a.s., 2 to 4 weeks
Text: as §1, §2, §3, §4, §5

Measured: efficacy (complete destruction; scale 0 to 100)

Cn1c(C(F)(F)F)cc(=O)n(-c2c(F)cc(Cl)c3nc(C4CCCC4)oc23)c1=O [Ia.3, 3-[4-Chloro-2-cyclopentyl-6-fluorobenzoxazol-7-yl]-1-methyl-6-trifluoromethyl-2,4-(1H,3H)-pyrimidinedione]
100%: all assays above
